Results published in ChEMBL document CHEMBL1201861, “Genomics of Drug Sensitity in Cancer screening data, Wellcome Trust Sanger Institute”.
pIC50: −log10 of the molar value.

Tested on: Ca-Ski;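 note: cell viability assay measuring inhibition of Ca-Ski cell growth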
Assay: cells
Format: functional, cell-based
Settings: Homo sapiens
Description: SANGER: Inhibition of human Ca-Ski cell growth in a cell viability assay.

SMILES	pIC50
CCCCCCCCCCCC1=C(O)C(=O)C=C(O)C1=O [EMBELIN]	4.74

Tested on: DOK;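 note: cell viability assay read-out, values reflect inhibition of cell growth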
Assay: cells
Format: functional, cell-based
Settings: Homo sapiens
Description: SANGER: Inhibition of human DOK cell growth in a cell viability assay.

SMILES	pIC50
CCCCCCCCCCCC1=C(O)C(=O)C=C(O)C1=O [EMBELIN]	4.93

Tested on: DU-145
Assay: cells
Format: functional, cell-based
Settings: Homo sapiens
Description: SANGER: Inhibition of human DU-145 cell growth in a cell viability assay.

SMILES	pIC50
CCCCCCCCCCCC1=C(O)C(=O)C=C(O)C1=O [EMBELIN]	5.06

Tested on: EC-GI-10
Assay: cells
Format: functional, cell-based, Homo sapiens
Settings: Homo sapiens, EC-GI-10
Description: SANGER: Inhibition of human EC-GI-10 cell growth in a cell viability assay.

SMILES	pIC50
CCCCCCCCCCCC1=C(O)C(=O)C=C(O)C1=O [EMBELIN]	< 4.49

Tested on: GP5d;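 note: growth inhibition of human GP5d cells, read out with a cell viability assay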
Assay: cells
Format: functional, cell-based
Settings: Homo sapiens
Description: SANGER: Inhibition of human GP5d cell growth in a cell viability assay.

SMILES	pIC50
CCCCCCCCCCCC1=C(O)C(=O)C=C(O)C1=O [EMBELIN]	5.07

Tested on: HCC1569;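 note: growth inhibition of human HCC1569 cells, read out with a cell viability assay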
Assay: cells
Format: functional, cell-based
Settings: Homo sapiens
Description: SANGER: Inhibition of human HCC1569 cell growth in a cell viability assay.

SMILES	pIC50
CCCCCCCCCCCC1=C(O)C(=O)C=C(O)C1=O [EMBELIN]	4.99

Tested on: HO-1-N-1;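 note: growth inhibition of human HO-1-N-1 cells, read out with a cell viability assay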
Assay: cells
Format: functional, cell-based
Settings: Homo sapiens
Description: SANGER: Inhibition of human HO-1-N-1 cell growth in a cell viability assay.

SMILES	pIC50
CCCCCCCCCCCC1=C(O)C(=O)C=C(O)C1=O [EMBELIN]	4.91

Tested on: HT1197
Assay: cells
Format: functional, cell-based, HT-1197
Settings: Homo sapiens
Description: SANGER: Inhibition of human HT-1197 cell growth in a cell viability assay.

SMILES	pIC50
CCCCCCCCCCCC1=C(O)C(=O)C=C(O)C1=O [EMBELIN]	4.60

Tested on: HuP-T4;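 note: cell viability assay measuring how much HuP-T4 cell growth is inhibited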
Assay: cells
Format: functional, cell-based
Settings: Homo sapiens
Description: SANGER: Inhibition of human HuP-T4 cell growth in a cell viability assay.

SMILES	pIC50
CCCCCCCCCCCC1=C(O)C(=O)C=C(O)C1=O [EMBELIN]	5.12

Tested on: IGR-1;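 note: growth inhibition of human IGR-1 cells, read out with a cell viability assay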
Assay: cells
Format: functional, cell-based
Settings: Homo sapiens
Description: SANGER: Inhibition of human IGR-1 cell growth in a cell viability assay.

SMILES	pIC50
CCCCCCCCCCCC1=C(O)C(=O)C=C(O)C1=O [EMBELIN]	5.27

Tested on: IGROV-1;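 note: reduction of IGROV-1 cell growth, read out with a viability assay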
Assay: cells
Format: functional, cell-based
Settings: Homo sapiens
Description: SANGER: Inhibition of human IGROV-1 cell growth in a cell viability assay.

SMILES	pIC50
CCCCCCCCCCCC1=C(O)C(=O)C=C(O)C1=O [EMBELIN]	5.25

Tested on: J82;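 note: growth inhibition of J82 cells, read out with a cell viability assay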
Assay: cells
Format: functional, cell-based
Settings: Homo sapiens
Description: SANGER: Inhibition of human J82 cell growth in a cell viability assay.

SMILES	pIC50
CCCCCCCCCCCC1=C(O)C(=O)C=C(O)C1=O [EMBELIN]	4.93

Tested on: K052;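 note: Read-out from a cell viability assay, IC50 reflecting suppression of K052 cell growth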
Assay: cells
Format: functional, cell-based, Homo sapiens
Settings: Homo sapiens, K052
Description: SANGER: Inhibition of human K052 cell growth in a cell viability assay.

SMILES	pIC50
CCCCCCCCCCCC1=C(O)C(=O)C=C(O)C1=O [EMBELIN]	4.54

Tested on: KYSE-520 cell line;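 note: growth inhibition of human KYSE-520 cells, read out with a viability assay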
Assay: cells
Format: functional, cell-based
Settings: Homo sapiens
Description: SANGER: Inhibition of human KYSE-520 cell growth in a cell viability assay.

SMILES	pIC50
CCCCCCCCCCCC1=C(O)C(=O)C=C(O)C1=O [EMBELIN]	4.73

Tested on: LU-99A;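 note: growth inhibition of LU-99A cells, read out with a cell viability assay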
Assay: cells
Format: functional, cell-based
Settings: Homo sapiens
Description: SANGER: Inhibition of human LU-99A cell growth in a cell viability assay.

SMILES	pIC50
CCCCCCCCCCCC1=C(O)C(=O)C=C(O)C1=O [EMBELIN]	< 4.49

Tested on: M14;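 note: growth inhibition of M14 cells, read out with a cell viability assay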
Assay: cells
Format: functional, cell-based
Settings: Homo sapiens
Description: SANGER: Inhibition of human M14 cell growth in a cell viability assay.

SMILES	pIC50
CCCCCCCCCCCC1=C(O)C(=O)C=C(O)C1=O [EMBELIN]	4.96

Tested on: MDA-MB-231
Assay: cells
Format: functional, cell-based
Settings: Homo sapiens
Description: SANGER: Inhibition of human MDA-MB-231 cell growth in a cell viability assay.

SMILES	pIC50
CCCCCCCCCCCC1=C(O)C(=O)C=C(O)C1=O [EMBELIN]	4.66

Tested on: MEL-JUSO;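 note: growth inhibition of human MEL-JUSO cells, read out with a cell viability assay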
Assay: cells
Format: functional, cell-based
Settings: Homo sapiens
Description: SANGER: Inhibition of human MEL-JUSO cell growth in a cell viability assay.

SMILES	pIC50
CCCCCCCCCCCC1=C(O)C(=O)C=C(O)C1=O [EMBELIN]	5.10

Tested on: MFE-280;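 note: growth inhibition of MFE-280 cells, determined with a cell viability readout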
Assay: cells
Format: functional, cell-based
Settings: Homo sapiens
Description: SANGER: Inhibition of human MFE-280 cell growth in a cell viability assay.

SMILES	pIC50
CCCCCCCCCCCC1=C(O)C(=O)C=C(O)C1=O [EMBELIN]	4.80

Tested on: NCI-H1417;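 note: human NCI-H1417 cells, growth inhibition determined with a cell viability readout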
Assay: cells
Format: functional, cell-based, Homo sapiens
Settings: Homo sapiens, NCI-H1417
Description: SANGER: Inhibition of human NCI-H1417 cell growth in a cell viability assay.

SMILES	pIC50
CCCCCCCCCCCC1=C(O)C(=O)C=C(O)C1=O [EMBELIN]	< 4.49

Tested on: NCI-H1573;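 note: growth inhibition of NCI-H1573 cells, read out with a cell viability assay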
Assay: cells
Format: functional, cell-based
Settings: Homo sapiens
Description: SANGER: Inhibition of human NCI-H1573 cell growth in a cell viability assay.

SMILES	pIC50
CCCCCCCCCCCC1=C(O)C(=O)C=C(O)C1=O [EMBELIN]	4.85

Tested on: NCI-H1755;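 note: cell viability readout used to measure growth inhibition of NCI-H1755 cells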
Assay: cells
Format: functional, cell-based
Settings: Homo sapiens
Description: SANGER: Inhibition of human NCI-H1755 cell growth in a cell viability assay.

SMILES	pIC50
CCCCCCCCCCCC1=C(O)C(=O)C=C(O)C1=O [EMBELIN]	< 4.49

Tested on: NCI-H1993;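 note: growth inhibition of the cancer cell line, assessed with a cell viability assay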
Assay: cells
Format: functional, cell-based
Settings: Homo sapiens
Description: SANGER: Inhibition of human NCI-H1993 cell growth in a cell viability assay.

SMILES	pIC50
CCCCCCCCCCCC1=C(O)C(=O)C=C(O)C1=O [EMBELIN]	< 4.49

Tested on: NCI-H2081;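 note: growth inhibition of human NCI-H2081 cells, read out with a cell viability assay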
Assay: cells
Format: functional, cell-based, Homo sapiens
Settings: Homo sapiens, NCI-H2081
Description: SANGER: Inhibition of human NCI-H2081 cell growth in a cell viability assay.

SMILES	pIC50
CCCCCCCCCCCC1=C(O)C(=O)C=C(O)C1=O [EMBELIN]	< 4.49

Tested on: NCI-H2087;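 note: growth inhibition determined with a cell viability readout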
Assay: cells
Format: functional, cell-based
Settings: Homo sapiens
Description: SANGER: Inhibition of human NCI-H2087 cell growth in a cell viability assay.

SMILES	pIC50
CCCCCCCCCCCC1=C(O)C(=O)C=C(O)C1=O [EMBELIN]	5.26

Tested on: NCI-H2196;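 note: cell viability assay used as the readout of growth inhibition in NCI-H2196 cells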
Assay: cells
Format: functional, cell-based, Homo sapiens
Settings: Homo sapiens, NCI-H2196; read-out: IC50
Description: SANGER: Inhibition of human NCI-H2196 cell growth in a cell viability assay.

SMILES	pIC50
CCCCCCCCCCCC1=C(O)C(=O)C=C(O)C1=O [EMBELIN]	< 4.49

Tested on: NCI-H2342;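 note: growth inhibition of the cancer cell line, determined with a cell viability assay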
Assay: cells
Format: functional, cell-based
Settings: Homo sapiens
Description: SANGER: Inhibition of human NCI-H2342 cell growth in a cell viability assay.

SMILES	pIC50
CCCCCCCCCCCC1=C(O)C(=O)C=C(O)C1=O [EMBELIN]	5.16

Tested on: NCI-H292;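 note: growth inhibition of NCI-H292 cells, read out with a cell viability assay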
Assay: cells
Format: functional, cell-based
Settings: Homo sapiens
Description: SANGER: Inhibition of human NCI-H292 cell growth in a cell viability assay.

SMILES	pIC50
CCCCCCCCCCCC1=C(O)C(=O)C=C(O)C1=O [EMBELIN]	4.53

Tested on: NCI-H520;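 note: growth inhibition of NCI-H520 cells, measured by a cell viability assay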
Assay: cells
Format: functional, cell-based
Settings: Homo sapiens
Description: SANGER: Inhibition of human NCI-H520 cell growth in a cell viability assay.

SMILES	pIC50
CCCCCCCCCCCC1=C(O)C(=O)C=C(O)C1=O [EMBELIN]	4.88

Tested on: NCI-H64;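 note: growth inhibition of NCI-H64 cells, read out with a cell viability assay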
Assay: cells
Format: functional, cell-based, Homo sapiens
Settings: Homo sapiens, NCI-H64
Description: SANGER: Inhibition of human NCI-H64 cell growth in a cell viability assay.

SMILES	pIC50
CCCCCCCCCCCC1=C(O)C(=O)C=C(O)C1=O [EMBELIN]	< 4.49

Tested on: OAW-28;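 note: growth inhibition of OAW-28 cells, read out with a cell viability assay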
Assay: cells
Format: functional, cell-based
Settings: Homo sapiens
Description: SANGER: Inhibition of human OAW-28 cell growth in a cell viability assay.

SMILES	pIC50
CCCCCCCCCCCC1=C(O)C(=O)C=C(O)C1=O [EMBELIN]	4.70

Tested on: OVCAR-5;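 note: growth inhibition of human OVCAR-5 cells, read out with a cell viability assay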
Assay: cells
Format: functional, cell-based
Settings: Homo sapiens
Description: SANGER: Inhibition of human OVCAR-5 cell growth in a cell viability assay.

SMILES	pIC50
CCCCCCCCCCCC1=C(O)C(=O)C=C(O)C1=O [EMBELIN]	< 4.49

Tested on: PF-382
Assay: cells
Format: functional, cell-based, Homo sapiens
Settings: Homo sapiens, PF-382
Description: SANGER: Inhibition of human PF-382 cell growth in a cell viability assay.

SMILES	pIC50
CCCCCCCCCCCC1=C(O)C(=O)C=C(O)C1=O [EMBELIN]	5.21

Tested on: RPMI-2650
Assay: cells
Format: functional, cell-based
Settings: Homo sapiens
Description: SANGER: Inhibition of human RPMI-2650 cell growth in a cell viability assay.

SMILES	pIC50
CCCCCCCCCCCC1=C(O)C(=O)C=C(O)C1=O [EMBELIN]	5.14

Tested on: RVH-421
Assay: cells
Format: functional, cell-based
Settings: Homo sapiens
Description: SANGER: Inhibition of human RVH-421 cell growth in a cell viability assay.

SMILES	pIC50
CCCCCCCCCCCC1=C(O)C(=O)C=C(O)C1=O [EMBELIN]	4.94

Tested on: S-117
Assay: cells
Format: functional, cell-based
Settings: Homo sapiens
Description: SANGER: Inhibition of human S-117 cell growth in a cell viability assay.

SMILES	pIC50
CCCCCCCCCCCC1=C(O)C(=O)C=C(O)C1=O [EMBELIN]	5.44

Tested on: SBC-5;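 note: cell viability assay read-out, IC50 is the concentration that inhibits growth of the cells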
Assay: cells
Format: functional, cell-based
Settings: Homo sapiens
Description: SANGER: Inhibition of human SBC-5 cell growth in a cell viability assay.

SMILES	pIC50
CCCCCCCCCCCC1=C(O)C(=O)C=C(O)C1=O [EMBELIN]	< 4.49

Tested on: SCC-3;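 note: cell viability assay measuring inhibition of SCC-3 cell growth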
Assay: cells
Format: functional, cell-based, Homo sapiens
Settings: Homo sapiens, SCC-3
Description: SANGER: Inhibition of human SCC-3 cell growth in a cell viability assay.

SMILES	pIC50
CCCCCCCCCCCC1=C(O)C(=O)C=C(O)C1=O [EMBELIN]	< 4.49

Tested on: SK-OV-3;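 note: growth inhibition of SK-OV-3 human cells, read out with a cell viability assay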
Assay: cells
Format: functional, cell-based
Settings: Homo sapiens
Description: SANGER: Inhibition of human SK-OV-3 cell growth in a cell viability assay.

SMILES	pIC50
CCCCCCCCCCCC1=C(O)C(=O)C=C(O)C1=O [EMBELIN]	4.96

Tested on: SNU-423
Assay: cells
Format: functional, cell-based
Settings: Homo sapiens
Description: SANGER: Inhibition of human SNU-423 cell growth in a cell viability assay.

SMILES	pIC50
CCCCCCCCCCCC1=C(O)C(=O)C=C(O)C1=O [EMBELIN]	< 4.49

Tested on: SUP-T1;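 note: growth inhibition of human SUP-T1 cells, read out as cell viability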
Assay: cells
Format: functional, cell-based, Homo sapiens
Settings: Homo sapiens, SUP-T1
Description: SANGER: Inhibition of human SUP-T1 cell growth in a cell viability assay.

SMILES	pIC50
CCCCCCCCCCCC1=C(O)C(=O)C=C(O)C1=O [EMBELIN]	5.14

Tested on: SW1088;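 note: growth inhibition of human SW1088 cells, read out by a cell viability assay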
Assay: cells
Format: functional, cell-based
Settings: Homo sapiens
Description: SANGER: Inhibition of human SW1088 cell growth in a cell viability assay.

SMILES	pIC50
CCCCCCCCCCCC1=C(O)C(=O)C=C(O)C1=O [EMBELIN]	4.78

Tested on: SW48;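 note: growth inhibition of SW48 cells, read out with a cell viability assay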
Assay: cells
Format: functional, cell-based
Settings: Homo sapiens
Description: SANGER: Inhibition of human SW48 cell growth in a cell viability assay.

SMILES	pIC50
CCCCCCCCCCCC1=C(O)C(=O)C=C(O)C1=O [EMBELIN]	4.51

Tested on: T47D;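 note: growth inhibition of human T47D cells, measured with a cell viability assay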
Assay: cells
Format: functional, cell-based
Settings: Homo sapiens
Description: SANGER: Inhibition of human T47D cell growth in a cell viability assay.

SMILES	pIC50
CCCCCCCCCCCC1=C(O)C(=O)C=C(O)C1=O [EMBELIN]	< 4.49

Tested on: CWR22R;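 note: growth inhibition of 22Rv1 cells, read out with a cell viability assay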
Assay: cells
Format: functional, cell-based
Settings: Homo sapiens, 22Rv1
Description: SANGER: Inhibition of human 22RV1 cell growth in a cell viability assay.

SMILES	pIC50
CCCCCCCCCCCC1=C(O)C(=O)C=C(O)C1=O [EMBELIN]	4.65

Tested on: 639-V;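 note: growth inhibition of 639-V cells, read out with a cell viability assay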
Assay: cells
Format: functional, cell-based
Settings: Homo sapiens
Description: SANGER: Inhibition of human 639-V cell growth in a cell viability assay.

SMILES	pIC50
CCCCCCCCCCCC1=C(O)C(=O)C=C(O)C1=O [EMBELIN]	< 4.49

Tested on: ASPC1;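 note: growth inhibition of AsPC-1 cells, read out with a cell viability assay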
Assay: cells
Format: functional, cell-based
Settings: Homo sapiens
Description: SANGER: Inhibition of human AsPC-1 cell growth in a cell viability assay.

SMILES	pIC50
CCCCCCCCCCCC1=C(O)C(=O)C=C(O)C1=O [EMBELIN]	< 4.49

Tested on: BOKU;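 note: growth inhibition of the human BOKU cell line, read out by a cell viability assay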
Assay: cells
Format: functional, cell-based
Settings: Homo sapiens
Description: SANGER: Inhibition of human BOKU cell growth in a cell viability assay.

SMILES	pIC50
CCCCCCCCCCCC1=C(O)C(=O)C=C(O)C1=O [EMBELIN]	4.97

Tested on: C32;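 note: cell viability assay, with IC50 reflecting inhibition of C32 cell growth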
Assay: cells
Format: functional, cell-based
Settings: Homo sapiens
Description: SANGER: Inhibition of human C32 cell growth in a cell viability assay.

SMILES	pIC50
CCCCCCCCCCCC1=C(O)C(=O)C=C(O)C1=O [EMBELIN]	5.55

Tested on: CAL-120;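 note: cell growth inhibition, read out as cell viability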
Assay: cells
Format: functional, cell-based
Settings: Homo sapiens
Description: SANGER: Inhibition of human CAL-120 cell growth in a cell viability assay.

SMILES	pIC50
CCCCCCCCCCCC1=C(O)C(=O)C=C(O)C1=O [EMBELIN]	4.62

Tested on: CAL-27;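 note: Viability-based readout, IC50 reflecting inhibition of CAL-27 cell growth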
Assay: cells
Format: functional, cell-based
Settings: Homo sapiens
Description: SANGER: Inhibition of human CAL-27 cell growth in a cell viability assay.

SMILES	pIC50
CCCCCCCCCCCC1=C(O)C(=O)C=C(O)C1=O [EMBELIN]	4.88

Tested on: CAL-62;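 note: growth inhibition of CAL-62 cells, read out with a cell viability assay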
Assay: cells
Format: functional, cell-based
Settings: Homo sapiens
Description: SANGER: Inhibition of human CAL-62 cell growth in a cell viability assay.

SMILES	pIC50
CCCCCCCCCCCC1=C(O)C(=O)C=C(O)C1=O [EMBELIN]	4.63

Tested on: TUR;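 note: growth inhibition of human TUR cells, read out with a cell viability assay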
Assay: cells
Format: functional, cell-based, Homo sapiens
Settings: Homo sapiens, TUR
Description: SANGER: Inhibition of human TUR cell growth in a cell viability assay.

SMILES	pIC50
CCCCCCCCCCCC1=C(O)C(=O)C=C(O)C1=O [EMBELIN]	< 4.49

Tested on: U-698-M
Assay: cells
Format: functional, cell-based, Homo sapiens
Settings: Homo sapiens, U-698-M
Description: SANGER: Inhibition of human U-698-M cell growth in a cell viability assay.

SMILES	pIC50
CCCCCCCCCCCC1=C(O)C(=O)C=C(O)C1=O [EMBELIN]	4.60

Tested on: UACC-62;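 note: growth inhibition of human UACC-62 cells, read out by a cell viability assay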
Assay: cells
Format: functional, cell-based
Settings: Homo sapiens
Description: SANGER: Inhibition of human UACC-62 cell growth in a cell viability assay.

SMILES	pIC50
CCCCCCCCCCCC1=C(O)C(=O)C=C(O)C1=O [EMBELIN]	5.76

Tested on: VMRC-RCZ;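 note: growth inhibition measured with a cell viability assay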
Assay: cells
Format: functional, cell-based
Settings: Homo sapiens
Description: SANGER: Inhibition of human VMRC-RCZ cell growth in a cell viability assay.

SMILES	pIC50
CCCCCCCCCCCC1=C(O)C(=O)C=C(O)C1=O [EMBELIN]	5.02

Tested on: CHL-1;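 note: cell growth inhibition, read out with a cell viability assay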
Assay: cells
Format: functional, cell-based
Settings: Homo sapiens
Description: SANGER: Inhibition of human CHL-1 cell growth in a cell viability assay.

SMILES	pIC50
CCCCCCCCCCCC1=C(O)C(=O)C=C(O)C1=O [EMBELIN]	5.33
